According to ChEMBL document CHEMBL1134184, “Synthesis of sialyl Lewis(x) mimics. Modifications of the 6-position of galactose” (Bioorg Med Chem Lett, 2001):
pIC50: −log10 of the molar value.

Molecular target: T1, E-selectin (Homo sapiens, UniProt P16581)
T1 sequence (P16581 whole entry): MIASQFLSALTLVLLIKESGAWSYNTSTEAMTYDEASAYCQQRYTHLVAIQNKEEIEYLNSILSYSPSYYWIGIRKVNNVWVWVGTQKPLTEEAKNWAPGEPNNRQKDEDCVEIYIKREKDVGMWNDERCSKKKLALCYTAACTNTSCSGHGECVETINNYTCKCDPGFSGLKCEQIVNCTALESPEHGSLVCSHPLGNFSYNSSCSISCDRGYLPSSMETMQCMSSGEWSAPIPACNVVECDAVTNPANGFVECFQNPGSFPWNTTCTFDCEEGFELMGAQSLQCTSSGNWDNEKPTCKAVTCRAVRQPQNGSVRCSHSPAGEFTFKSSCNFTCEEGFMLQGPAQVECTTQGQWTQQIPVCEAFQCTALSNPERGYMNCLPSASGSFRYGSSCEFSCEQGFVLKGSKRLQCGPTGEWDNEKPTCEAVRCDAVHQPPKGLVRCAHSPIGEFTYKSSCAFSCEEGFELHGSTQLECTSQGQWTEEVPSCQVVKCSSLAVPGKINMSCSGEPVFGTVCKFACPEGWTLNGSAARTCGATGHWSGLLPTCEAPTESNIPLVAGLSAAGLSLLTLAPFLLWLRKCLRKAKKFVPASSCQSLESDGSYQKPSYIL
Test: Inhibitory concentration of compound to block the binding of sLE Xto E-selectin

Row | SMILES | pIC50
1 | C[C@@H]1O[C@@H](O[C@@H]2CCCC[C@H]2O[C@@H]2O[C@@H](CO)[C@H](O)[C@H](O[C@@H](CC3CCCCC3)C(=O)O)[C@@H]2O)[C@@H](O)[C@@H](O)[C@@H]1O | 4.10
2 | CC(=O)NCC1OC(OC2CCCCC2OC2OC(C)C(O)C(O)C2O)C(O)C(OC(Cc2ccccc2)C(=O)O)C1O (stereo not given) | < 2.00
3 | CC1OC(OC2CCCCC2OC2OC(C(N)=O)C(O)C(O[C@@H](CC3CCCCC3)C(=O)O)C2O)C(O)C(O)C1O (stereo not given in full) | < 2.00
4 | C[C@@H]1O[C@@H](O[C@@H]2CCCC[C@H]2O[C@@H]2O[C@@H](CO)[C@H](O)[C@H](O[C@@H](Cc3ccccc3)C(=O)O)[C@@H]2O)[C@@H](O)[C@@H](O)[C@@H]1O | 3.46
5 | C[C@@H]1O[C@@H](O[C@@H]2CCCC[C@H]2O[C@@H]2O[C@@H](C(=O)O)[C@H](O)[C@H](O[C@@H](Cc3ccccc3)C(=O)O)[C@@H]2O)[C@@H](O)[C@@H](O)[C@@H]1O | < 2.00
6 | C[C@@H]1O[C@@H](O[C@@H]2CCCC[C@H]2O[C@@H]2O[C@@H](C(=O)O)[C@H](O)[C@H](O[C@@H](CC3CCCCC3)C(=O)O)[C@@H]2O)[C@@H](O)[C@@H](O)[C@@H]1O | < 2.00

Next, values leading:

Row | pIC50 | SMILES
7 | < 2.00 | CC1OC(OC2CCCCC2OC2OC(CN)C(O)C(O[C@@H](Cc3ccccc3)C(=O)O)C2O)C(O)C(O)C1O (stereo not given in full)
8 | < 2.00 | C[C@@H]1O[C@@H](O[C@@H]2CCCC[C@H]2O[C@@H]2O[C@@H](COS(=O)(=O)O)[C@H](O)[C@H](O[C@@H](Cc3ccccc3)C(=O)O)[C@@H]2O)[C@@H](O)[C@@H](O)[C@@H]1O
9 | < 2.00 | CC1OC(OC2CCCCC2OC2OC(CNC(=O)c3ccccc3)C(O)C(OC(Cc3ccccc3)C(=O)O)C2O)C(O)C(O)C1O (stereo not given)
10 | 3.00 | COC(=O)CCCCCCCCO[C@@H]1OC(CO)[C@@H](O[C@@H]2O[C@@H](CO)[C@H](O)[C@H](O[C@]3(C(=O)O)C[C@@H](O)[C@@H](NC(C)=O)[C@@H](C(O)C(O)CO)O3)[C@@H]2O)[C@@H](O[C@@H]2O[C@H](C)[C@@H](O)[C@H](O)C2O)[C@@H]1NC(C)=O (stereo not given in full)
